Tests used:
[1] = system: stroke or transient ischemic attack (TIA); experiment: CARE: stroke (including TIA) statin response by SNP genotype, hazard ratio pravastatin vs placebo (Tables 20-21); format: in vivo, human; settings: for EVENTS_RESP (total number of stroke or TIA events): CARE pravastatin arm; for HR_RESP (hazard ratio pravastatin vs placebo, stroke) / HR_RESP (hazard ratio, pravastatin-treated vs placebo-treated): CARE; for HR_RESP (hazard ratio pravastatin vs placebo, stroke): ref = placebo; for HR_RESP (hazard ratio, pravastatin-treated vs placebo-treated): stroke or TIA, pravastatin 40 mg/day
From the text: Tables 20-21 provides SNPs associated with stroke risk and/or stroke statin response (reduction in stroke risk by statin treatment) in the CARE sample set. Consistent with the CARE trial, the stroke endpoint in the analysis for which the results are provided in Tables 20-21 included stroke as well as transient ischemic attack (TIA).
In Tables 20-22, certain columns are labeled “RESP”, “PLACEBO, OR “ALL”. “RESP” is for statin response as measured by comparing risk (risk for stroke, including TIA, in Tables 20-21, and risk for CHD, specifically recurrent MI, in Table 22) in the pravastatin-treated group with risk in the placebo-treated group, “PLACEBO” is the placebo-treated group, and “ALL” is the combination of the placebo-treated group and the pravastatin-treated group. “RESP” is the analysis to assess statin response in the indicated genotype group.
“EVENTS” indicates the total number of events (stroke or TIA for Tables 20-21, and recurrent MI for Table 22) in individuals with the indicated genotype.
“HR” indicates the hazard ratio.
CARE was a secondary prevention trial and WOSCOPS was a primary prevention trial.
Table 20 provides SNPs associated with stroke risk and/or stroke statin response in the CARE sample set. For example, SNPs rs10757278 and rs1333049 at chromosomal location 9p21 were associated with a reduction of stroke events by statin treatment in CARE, particularly for heterozygotes (see Table 20). Furthermore, SNPs rs12425791 and rs11833579 at chromosomal location 12p13 near the NINJ2 gene were associated with stroke risk in the placebo arm of CARE (see Table 20). […] Consistent with the CARE trial, the stroke endpoint in the analysis for which the results are provided in Tables 20-21 included stroke as well as transient ischemic attack (TIA).
Fine-mapping at the chromosome 12p13 locus was carried out by selecting 77 tagging SNPs from a 400 kb region of the chromosome 12p13 locus which covered the NINJ2 gene and other genes, genotyping these 77 SNPs, and further imputing the genotypes of approximately 250 additional SNPs in this region, for individuals in the CARE study. Analyzing these fine-mapping SNPs for association with stroke risk in the placebo arm of CARE and for stroke statin response in CARE identified SNP rs873134 in the B4GALNT3 gene in the chromosome 12p13 region near NINJ2 (see Table 21).

myocyte cultures = settings: animal models and myocyte cultures; compared to lipophilic statins; cited from earlier work

## CC[C@H](C)C(=O)O[C@H]1C[C@H](O)C=C2C=C[C@H](C)[C@H](CC[C@@H](O)C[C@@H](O)CC(=O)O)[C@H]21 [Pravastatin, pravastatin]
[1]; rs873134 genotype CC, MODE GEN, of 354 individuals
  EVENTS_RESP (total number of stroke or TIA events): 27
[1]; rs873134 genotype CT + CC, MODE DOM, of 1034 individuals
  EVENTS_RESP (total number of stroke or TIA events): 51
[1]; rs873134 genotype CT + TT, MODE REC, of 1046 individuals
  EVENTS_RESP (total number of stroke or TIA events): 40
[1]; rs873134 genotype CT, MODE GEN, of 680 individuals
  EVENTS_RESP (total number of stroke or TIA events): 24
[1]; rs873134 genotype TT, MODE GEN, of 366 individuals
  EVENTS_RESP (total number of stroke or TIA events): 16
[1]; rs1333049 (hCV1754666, 9p21), MODE DOM, genotype GC + GG
  HR_RESP (hazard ratio pravastatin vs placebo, stroke): 0.63
[1]; rs1333049 (hCV1754666, 9p21), MODE GEN, genotype CC
  HR_RESP (hazard ratio pravastatin vs placebo, stroke): 1.11
[1]; rs1333049 (hCV1754666, 9p21), MODE GEN, genotype GC
  HR_RESP (hazard ratio pravastatin vs placebo, stroke): 0.54
[1]; rs1333049 (hCV1754666, 9p21), MODE GEN, genotype GG
  HR_RESP (hazard ratio pravastatin vs placebo, stroke): 0.96
[1]; rs1333049 (hCV1754666, 9p21), MODE REC, genotype GC + CC
  HR_RESP (hazard ratio pravastatin vs placebo, stroke): 0.7
[1]; rs10757278 (hCV11841860, 9p21), MODE DOM, genotype GA + GG
  HR_RESP (hazard ratio pravastatin vs placebo, stroke): 0.7
[1]; rs10757278 (hCV11841860, 9p21), MODE GEN, genotype AA
  HR_RESP (hazard ratio pravastatin vs placebo, stroke): 0.9
[1]; rs10757278 (hCV11841860, 9p21), MODE GEN, genotype GA
  HR_RESP (hazard ratio pravastatin vs placebo, stroke): 0.54
[1]; rs10757278 (hCV11841860, 9p21), MODE GEN, genotype GG
  HR_RESP (hazard ratio pravastatin vs placebo, stroke): 1.08
[1]; rs10757278 (hCV11841860, 9p21), MODE REC, genotype GA + AA
  HR_RESP (hazard ratio pravastatin vs placebo, stroke): 0.62
[1]; rs11833579 (hCV1665834, 12p13), MODE DOM, genotype AG + AA
  HR_RESP (hazard ratio pravastatin vs placebo, stroke): 0.64
[1]; rs11833579 (hCV1665834, 12p13), MODE GEN, genotype AA
  HR_RESP (hazard ratio pravastatin vs placebo, stroke): 0.26
[1]; rs11833579 (hCV1665834, 12p13), MODE GEN, genotype AG
  HR_RESP (hazard ratio pravastatin vs placebo, stroke): 0.75
[1]; rs11833579 (hCV1665834, 12p13), MODE GEN, genotype GG
  HR_RESP (hazard ratio pravastatin vs placebo, stroke): 0.86
[1]; rs11833579 (hCV1665834, 12p13), MODE REC, genotype AG + GG
  HR_RESP (hazard ratio pravastatin vs placebo, stroke): 0.81
[1]; rs12425791 (hCV12094896, 12p13), MODE DOM, genotype AG + AA
  HR_RESP (hazard ratio pravastatin vs placebo, stroke): 0.52
[1]; rs12425791 (hCV12094896, 12p13), MODE GEN, genotype AA
  HR_RESP (hazard ratio pravastatin vs placebo, stroke): 0.28
[1]; rs12425791 (hCV12094896, 12p13), MODE GEN, genotype AG
  HR_RESP (hazard ratio pravastatin vs placebo, stroke): 0.56
[1]; rs12425791 (hCV12094896, 12p13), MODE GEN, genotype GG
  HR_RESP (hazard ratio pravastatin vs placebo, stroke): 0.95
[1]; rs12425791 (hCV12094896, 12p13), MODE REC, genotype AG + GG
  HR_RESP (hazard ratio pravastatin vs placebo, stroke): 0.78
[1]; rs873134 (hCV2652047) genotype CC, MODE GEN
  HR_RESP (hazard ratio, pravastatin-treated vs placebo-treated): 2.01
[1]; rs873134 (hCV2652047) genotype CT + CC, MODE DOM
  HR_RESP (hazard ratio, pravastatin-treated vs placebo-treated): 0.83
[1]; rs873134 (hCV2652047) genotype CT + TT, MODE REC
  HR_RESP (hazard ratio, pravastatin-treated vs placebo-treated): 0.52
[1]; rs873134 (hCV2652047) genotype CT, MODE GEN
  HR_RESP (hazard ratio, pravastatin-treated vs placebo-treated): 0.5
[1]; rs873134 (hCV2652047) genotype TT, MODE GEN
  HR_RESP (hazard ratio, pravastatin-treated vs placebo-treated): 0.54
Myocyte cultures
  myopathic potential: low myopathic potential
